Source: patent publication US9200005B2, “Inhibitor compounds of phosphodiesterase type 10A” (AbbVie Deutschland GmbH & Co. KG, priority 2013, dated 2015)
Where a name gives a salt, the structure may show the parent alone.

What was measured:
[1] = Determination of the microsomal half-life / microsomal clearance, human liver microsomes; format: in vitro ADME; settings: 0.5 μM test substance, 0.25 mg of microsomal protein/mL, NADPH, 37° C.
Protocol: (§1) b) Determination of the Microsomal Half-Life:
(§2) The metabolic stability of the compounds of the invention was determined in the following assay.
(§3) The test substances were incubated in a concentration of 0.5 μM as follows:
(§4) 0.5 μM test substance are preincubated together with liver microsomes from different species (from rat, human or other species) (0.25 mg of microsomal protein/mL) in 0.05 M potassium phosphate buffer of pH 7.4 in microtiter plates at 37° C. for 5 min. The reaction is started by adding NADPH (1 mg/mL). After 0, 5, 10, 15, 20 and 30 min, 50 μl aliquots are removed, and the reaction is immediately stopped and cooled with the same volume of acetonitrile. The samples are frozen until analyzed. The remaining concentration of undegraded test substance is determined by MSMS. The half-life (T½) is determined from the gradient of the signal of test substance/unit time plot, it being possible to calculate the half-life of the test substance, assuming first order kinetics, from the decrease in the concentration of the compound with time. The microsomal clearance (mCl) is calculated from mCl=ln 2/T½/(content of microsomal protein in mg/mL)×1000 [mL/min/mg] (modified from references: Di, The Society for Biomoleculur Screening, 2003, 453-462; Obach, DMD, 1999 vol 27. N 11, 1350-1359).

[2] = Determination of the microsomal half-life / microsomal clearance, rat liver microsomes; format: in vitro ADME; settings: 0.5 μM test substance, 0.25 mg of microsomal protein/mL, NADPH, 37° C.
Protocol: as §1, §2, §3, §4

[3] = target: PDE10A (UniProt Q9Y233); assay: Measurement of PDE activity (HTRF cAMP kit, recombinant PDE10A); format: biochemical, human, rat and mouse; settings: substrate 20 nM, 60 minutes at 29° C.
Protocol: a) Measurement of PDE Activity
The recombinant PDE proteins are used in in vitro enzymatic reaction for measurement of PDE activity. These recombinant proteins, including PDE10A (human, rat and mouse PDE10) and isoforms of PDEs 1, 3, 4, and 5, were purchased from commercial vendor BPS Bioscience. The enzymatic activity of PDEs was determined by cAMP measurement kit from CisBio (IBA) using HTRF technology.
The PDE enzymatic reaction was carried out in assay buffer (20 mM Tris-HCl pH 7.5, 10 mM MgCl2, 0.1% bovine serum albumin) containing enzyme and substrate. […] The substrate cyclic nucleotide (cAMP or cGMP) concentration used in the assay was 20 nM for PDE10, and 100 nM for other PDEs. The inhibitory effect of compound was determined by incubating various concentration of inhibitor in the enzymatic assay. […] Next, the compound at varying concentration was mixed with PDE enzyme. The reaction was initiated by addition of cyclic nucleotide substrate, and incubated for 60 minutes at 29° C. The reaction was stopped by addition of lysis buffer from the assay kit. The cAMP-d2 and anti-cAMP cryptate in the lysis buffer detected the level of cAMP left from the PDE hydrolysis reaction. […] Thus, IC50 value of inhibitor can be obtained by plotting inhibitor concentration against PDE activity at that concentration.

| SMILES | Human mCl [1] | Rat mCl [2] | IC50 [3] [nM] | IC50 ([3]; (hydrochloride salt)) [nM] |
| --- | --- | --- | --- | --- |
| Cn1nc(Oc2ccc3c(c2)OCO3)c2scc(-c3ccncc3)c2c1=O [Example 89, 7-(1,3-benzodioxol-5-yloxy)-5-methyl-3-(pyridin-4-yl)thieno[2,3-d]pyridazin-4(5H)-one] | ++ (++: <100 μl min^−1 mg^−1) | + (+: 100-220 μl min^−1 mg^−1) | 200 to 500 | – |
| CC(C)n1nc(-c2ccncc2)c2scc(-c3ccncc3)c2c1=O [Example 135, 5-(propan-2-yl)-3,7-di(pyridin-4-yl)thieno[2,3-d]pyridazin-4(5H)-one] | ++ (++: <100 μl min^−1 mg^−1) | + (+: 100-220 μl min^−1 mg^−1) | 200 to 500 | – |
| Cn1nc(-c2ccncc2)c2scc(N3CCOCC3)c2c1=O [Example 3, 5-methyl-3-(morpholin-4-yl)-7-(pyridin-4-yl)thieno[2,3-d]pyridazin-4(5H)-one] | ++ (++: <100 μl min^−1 mg^−1) | ++ (++: <100 μl min^−1 mg^−1) | 200 to 500 | – |
| O=c1c2c(-c3ccncc3)csc2c(-c2ccncc2)nn1CC(F)(F)F [Example 131, 3,7-di(pyridin-4-yl)-5-(2,2,2-trifluoroethyl)thieno[2,3-d]pyridazin-4(5H)-one] | ++ (++: <100 μl min^−1 mg^−1) | ++ (++: <100 μl min^−1 mg^−1) | < 100 | – |
| COc1cccc(-c2nn(C)c(=O)c3c(-c4ccncc4)csc23)c1 [Example 123, 7-(3-methoxyphenyl)-5-methyl-3-(pyridin-4-yl)thieno[2,3-d]pyridazin-4(5H)-one] | + (+: 100-220 μl min^−1 mg^−1) | ∘ (∘ not avialable or >220 μl min^−1 mg^−1) | 100 to 200 | – |
| Cn1nc(OCc2coc3ccccc23)c2scc(-c3ccncc3)c2c1=O [Example 63, 7-(1-benzofuran-3-ylmethoxy)-5-methyl-3-(pyridin-4-yl)thieno[2,3-d]pyridazin-4(5H)-one] | ++ (++: <100 μl min^−1 mg^−1) | ++ (++: <100 μl min^−1 mg^−1) | 100 to 200 | – |
| CC(Oc1nn(C)c(=O)c2c(-c3ccncc3)csc12)c1nc2ccccc2n1C (stereo not drawn) [Example 78, 5-methyl-7-[1-(1-methyl-1H-benzimidazol-2-yl)ethoxy]-3-(pyridin-4-yl)thieno[2,3-d]pyridazin-4(5H)-one] | ++ (++: <100 μl min^−1 mg^−1) | + (+: 100-220 μl min^−1 mg^−1) | < 100 | – |
| Cn1nc(OCc2ccc(Cl)cc2)c2scc(-c3ccncc3)c2c1=O [Example 62, 7-[(4-chlorobenzyl)oxy]-5-methyl-3-(pyridin-4-yl)thieno[2,3-d]pyridazin-4(5H)-one] | ++ (++: <100 μl min^−1 mg^−1) | ++ (++: <100 μl min^−1 mg^−1) | 200 to 500 | – |
| CCCn1nc(-c2ccncc2)c2scc(-c3ccncc3)c2c1=O [Example 139, 5-propyl-3,7-di(pyridin-4-yl)thieno[2,3-d]pyridazin-4(5H)-one] | + (+: 100-220 μl min^−1 mg^−1) | ++ (++: <100 μl min^−1 mg^−1) | 100 to 200 | – |
| COc1cc(OC)cc(Oc2nn(C)c(=O)c3c(-c4ccncc4)csc23)c1 [Example 92, 7-(3,5-dimethoxyphenoxy)-5-methyl-3-(pyridin-4-yl)thieno[2,3-d]pyridazin-4(5H)-one] | + (+: 100-220 μl min^−1 mg^−1) | ++ (++: <100 μl min^−1 mg^−1) | < 100 | – |
| Cn1nc(OCc2cccc(C(N)=O)c2)c2scc(-c3ccncc3)c2c1=O.O=C(O)C(F)(F)F [Example 67, 3-({[5-methyl-4-oxo-3-(pyridin-4-yl)-4,5-dihydrothieno[2,3-d]pyridazin-7-yl]oxy}methyl)benzamide trifluoroacetate] | ++ (++: <100 μl min^−1 mg^−1) | ++ (++: <100 μl min^−1 mg^−1) | < 100 | – |
| Cn1nc(-c2ccncc2)c2scc(-c3cncnc3)c2c1=O [Example 11, 5-methyl-7-(pyridin-4-yl)-3-(pyrimidin-5-yl)thieno[2,3-d]pyridazin-4(5H)-one (hydrochloride salt)] | ++ (++: <100 μl min^−1 mg^−1) | ++ (++: <100 μl min^−1 mg^−1) | – | 100 to 200 |
| Cn1nc(OCc2nc3ccccc3s2)c2scc(-c3ccncc3)c2c1=O [Example 71, 7-(1,3-benzothiazol-2-ylmethoxy)-5-methyl-3-(pyridin-4-yl)thieno[2,3-d]pyridazin-4(5H)-one trifluoroacetate] | – | – | < 100 | – |
| Cc1cnc(Cl)c(Oc2nn(C)c(=O)c3c(-c4ccncc4)csc23)c1 [Example 90, 7-[(2-chloro-5-methylpyridin-3-yl)oxy]-5-methyl-3-(pyridin-4-yl)thieno[2,3-d]pyridazin-4(5H)-one trifluoroacetate] | – | – | < 100 | – |
| Cn1nc(-c2ccccc2F)c2scc(-c3ccncc3)c2c1=O [Example 115, 7-(2-fluorophenyl)-5-methyl-3-(pyridin-4-yl)thieno[2,3-d]pyridazin-4(5H)-one trifluoroacetate] | – | – | 200 to 500 | – |
| Cn1nc(-c2ccc(Cl)cc2)c2scc(-c3ccncc3)c2c1=O [Example 110, 7-(4-chlorophenyl)-5-methyl-3-(pyridin-4-yl)thieno[2,3-d]pyridazin-4(5H)-one trifluoroacetate] | – | – | 200 to 500 | – |
| COc1cc(OC)cc(-c2nn(C)c(=O)c3c(-c4ccncc4)csc23)c1 [Example 111, 7-(3,5-dimethoxyphenyl)-5-methyl-3-(pyridin-4-yl)thieno[2,3-d]pyridazin-4(5H)-one trifluoroacetate] | – | – | 100 to 200 | – |
| N#CCCn1nc(-c2ccncc2)c2scc(-c3ccncc3)c2c1=O [Example 140, 3-[4-oxo-3,7-di(pyridin-4-yl)thieno[2,3-d]pyridazin-5(4H)-yl]propanenitrile] | – | – | 100 to 200 | – |
| Cn1nc(-c2ccc(C(F)(F)F)cc2)c2scc(-c3ccncc3)c2c1=O [Example 117, 5-methyl-3-(pyridin-4-yl)-7-[4-(trifluoromethyl)phenyl]thieno[2,3-d]pyridazin-4(5H)-one trifluoroacetate] | – | – | 100 to 200 | – |
| Cn1nc(OC2Cc3ccccc3C2)c2scc(-c3ccncc3)c2c1=O [Example 60, 7-(2,3-dihydro-1H-inden-2-yloxy)-5-methyl-3-(pyridin-4-yl)thieno[2,3-d]pyridazin-4(5H)-one trifluoroacetate] | – | – | 200 to 500 | – |
| Cn1nc(-c2cccc(C(F)(F)F)c2)c2scc(-c3ccncc3)c2c1=O [Example 114, 5-methyl-3-(pyridin-4-yl)-7-[3-(trifluoromethyl)phenyl]thieno[2,3-d]pyridazin-4(5H)-one trifluoroacetate] | – | – | 100 to 200 | – |
| COc1ccc(-c2nn(C)c(=O)c3c(-c4ccncc4)csc23)cc1OC [Example 102, 7-(3,4-dimethoxyphenyl)-5-methyl-3-(pyridin-4-yl)thieno[2,3-d]pyridazin-4(5H)-one trifluoroacetate] | – | – | < 100 | – |
| Cn1nc(-c2cccc(Cl)c2)c2scc(-c3ccncc3)c2c1=O [Example 105, 7-(3-chlorophenyl)-5-methyl-3-(pyridin-4-yl)thieno[2,3-d]pyridazin-4(5H)-one trifluoroacetate] | – | – | 200 to 500 | – |
| Cn1nc(OCc2ccc3c(c2)CNC3)c2scc(-c3ccncc3)c2c1=O [Example 126, 7-(2,3-dihydro-1H-isoindol-5-ylmethoxy)-5-methyl-3-(pyridin-4-yl)thieno[2,3-d]pyridazin-4(5H)-one bis(trifluoroacetate)] | – | – | 200 to 500 | – |
| Cc1cc(-c2nn(C)c(=O)c3c(-c4ccncc4)csc23)ccn1 [Example 120, 5-methyl-7-(2-methylpyridin-4-yl)-3-(pyridin-4-yl)thieno[2,3-d]pyridazin-4(5H)-one bis(trifluoroacetate)] | – | – | < 100 | – |
| Cn1nc(-c2cccc(O)c2)c2scc(-c3ccncc3)c2c1=O [Example 107, 7-(3-hydroxyphenyl)-5-methyl-3-(pyridin-4-yl)thieno[2,3-d]pyridazin-4(5H)-one trifluoroacetate (salt)] | – | – | < 100 | – |
| COc1ccccc1-c1nn(C)c(=O)c2c(-c3ccncc3)csc12 [Example 113, 7-(2-methoxyphenyl)-5-methyl-3-(pyridin-4-yl)thieno[2,3-d]pyridazin-4(5H)-one trifluoroacetate] | – | – | 200 to 500 | – |
